The record followed here is publication PMC12226049, “Imlunestrant a next-generation oral SERD overcomes ESR1 mutant resistance in estrogen receptor–positive breast cancer” (JCI Insight, 2025).

In this assay the target is T1, Estrogen receptor α (ER) (Homo sapiens, UniProt P03372, Y537S).
T1 construct: gene ESR1; HA-tagged ER mutant, doxycycline-inducible in MCF7
T1 sequence (P03372 1-595 Y537S): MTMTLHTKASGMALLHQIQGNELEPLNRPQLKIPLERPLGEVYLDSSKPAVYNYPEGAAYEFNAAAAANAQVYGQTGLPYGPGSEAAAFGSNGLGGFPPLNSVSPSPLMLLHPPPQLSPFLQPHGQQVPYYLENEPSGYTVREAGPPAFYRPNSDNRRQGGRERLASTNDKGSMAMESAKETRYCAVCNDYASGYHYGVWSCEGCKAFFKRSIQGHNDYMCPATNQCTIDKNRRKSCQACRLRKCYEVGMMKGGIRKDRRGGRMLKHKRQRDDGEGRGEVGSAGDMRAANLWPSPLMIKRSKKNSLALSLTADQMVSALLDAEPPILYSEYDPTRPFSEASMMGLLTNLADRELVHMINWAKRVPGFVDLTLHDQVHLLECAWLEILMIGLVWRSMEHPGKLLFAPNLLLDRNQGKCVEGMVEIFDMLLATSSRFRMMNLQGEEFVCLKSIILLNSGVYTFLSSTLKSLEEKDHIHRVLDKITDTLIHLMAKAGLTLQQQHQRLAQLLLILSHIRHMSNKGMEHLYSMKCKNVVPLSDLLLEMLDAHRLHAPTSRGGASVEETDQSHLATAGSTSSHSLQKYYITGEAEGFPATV
The experiment in a line: degradation of HA-tagged ER-Y537S by western blot in MCF7 cells ([…]). It is filed as cell-based. (A western blot detects proteins with antibodies after separation by electrophoresis.)

With `Oc1ccc2c3c(cnc2c1)-c1ccc(C(F)(F)F)cc1O[C@@H]3c1ccc(OCCN2CC(CF)C2)cc1` [IML, imlunestrant], the “degradation of HA-tagged ER-Y537S by western blot in MCF7 cells (100 nM)” value was “mutant-ER protein degradation was superior with imlunestrant treatment versus fulvestrant”.
